In the test the target is T1, Human M4 receptors (Homo sapiens, UniProt P08173).
T1 construct: expressed in transfected cells
T1 sequence (P08173 1-479): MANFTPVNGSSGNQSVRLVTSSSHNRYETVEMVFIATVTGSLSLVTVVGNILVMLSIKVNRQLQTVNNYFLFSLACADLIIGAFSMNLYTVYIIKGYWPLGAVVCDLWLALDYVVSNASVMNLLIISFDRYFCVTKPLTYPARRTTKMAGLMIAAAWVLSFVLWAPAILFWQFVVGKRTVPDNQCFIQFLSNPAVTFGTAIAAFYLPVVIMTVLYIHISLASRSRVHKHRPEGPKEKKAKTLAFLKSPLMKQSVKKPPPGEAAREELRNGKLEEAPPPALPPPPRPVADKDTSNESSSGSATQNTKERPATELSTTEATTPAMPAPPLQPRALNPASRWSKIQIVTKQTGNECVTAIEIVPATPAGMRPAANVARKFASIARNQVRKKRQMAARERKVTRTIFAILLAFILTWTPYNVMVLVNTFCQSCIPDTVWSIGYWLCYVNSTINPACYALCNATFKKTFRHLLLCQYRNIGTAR
Put plainly: M4 PAM cAMP assay (GloSensor). It counts as cell-based. The conditions noted are these: HEK293 GloSensor cells expressing hM4, with EC20 acetylcholine and isoproterenol, geometric mean of 2-4 determinations unless footnoted (b: >=5, c: single); for Emax: Emax = maximum asymptote of fitted dose response curve, read-out: EC50 Mean Asymptote Maximum (%). As to the method:
The M4 cAMP assay was designed to determine the potency and efficacy of muscarinic positive allosteric modulators (PAMs). Human M4 receptors were stably expressed in Human embryonic kidney (HEK293) cells expressed with the Promega GloSensor™ cAMP technology.
HEK293 GloSensor cells expressing hM4 cells were cultured in growth media containing DMEM with 10% FBS, 1% Penicillin/Streptomycin, 500 μg/mL G418, 200 μg/mL Hygomycin B, and 1% Glutamax. When cells had grown to 80%-90% confluency, cells were harvested and seeded at a density of 25,000 cells/40 μL well, in a 384 white walled plates (Becton Dickinson 356661). Plates were incubated at 37 degrees C. and 5% CO2 for use after 24 hours.
Compound Preparation for Activator Screen:
Test compounds were initially prepared as 100% DMSO stock solutions, then transferred and serially diluted in 384-well compound plates (Matrix #4325). Each compound was tested at 10 concentrations in duplicate per experiment. Compound plates are spotted with 0.2 μL/well activator at 400 times the final assay concentration. Positive and negative controls for the compound alone activator response was 10 μM acetylcholine (Sigma # A2661) and DMSO, respectively. EC20 of acetylcholine was also used to define PAM activities.
Promega GloSensor™reagent (Promega # E1291) had previously been aliquotted. For each experiment, a stock solution of GloSensor™ was thawed out and equilibration medium was prepared with 88% CO2-independent media (Invitrogen #18045088), 10% fetal bovine serum and 2% GloSensor™ cAMP Reagent stock solution. Stock solution was mixed. Culture media in cell plates was discarded, then replaced with 40 μL/well pre-warmed equilibration media, then incubated in the dark at room temperature for 2 hours. During the incubation, stimulation media containing agonist and EC20 acetylcholine was prepared. CO2-independent media containing 50 […] Isoproterenol representing an EC80 of b-adrenergic receptor activity (Sigma #16504, 400 times final concentration) and EC20 acetylcholine in 1.25% DMSO was added to all columns of the compound plate, with the exception of column 12 to allow for EC0 control. […] Compounds are now 5 times the final assay concentration. The plate was mixed using a plate agitator. At the end of the 2 hour GloSensor™ incubation, add 10 μL of the CO2-independent media containing agonist, EC20 acetylcholine and isoproterenol to the cell plate. Cell plate was then incubated for 10 minutes at room temperature, and then read using an EnVision plate reader (Perkin Elmer).
Data was exported from the EnVision plate reader. The percent effect for each well was determined using the mean values for the positive and negative controls on each plate for each read, specifically 100*(compound−negative control)/(positive control−negative control). Dose response curves were fitted to the compound percent effect data using a 4-parameter logistic fit model. Data was reported as EC50 and Emax, with the Emax as the maximum asymptote of the fitted dose response curve.
On the technique in general: Changes in cAMP serve as a functional read-out for many G protein-coupled receptors.

The structures appear in SMILES notation.

One may read the EC50 as the concentration giving half of the maximal effect.

For `Cc1[nH]c(=O)c2c(c1C)CN(C(=O)CC1CN(c3cccnc3)C1)C2` [Example 21, 6,7-dimethyl-2-{[1-(pyridin-3-yl)azetidin-3-yl]acetyl}-1,2,3,5-tetrahydro-4H-pyrrolo[3,4-c]pyridin-4-one], the Emax stood at 99.7% and a half-maximal effect (EC50) was put at 8.72 nM.

Consider `Cc1nc(NCC2CC2)c2c(c1C)CN(C(=O)CC1CN(c3ccncn3)C1)C2` [Example 22, 1-{4-[(cyclopropylmethyl)amino]-6,7-dimethyl-1,3-dihydro-2H-pyrrolo[3,4-c]pyridin-2-yl}-2-[1-(pyrimidin-4-yl)azetidin-3-yl]ethanone], for which the Emax was determined as 99.7% and the response was half-maximal at 0.626 nM (EC50).

Consider `CNc1nc(C)c(C)c2c1CN(C(=O)CC1CN(c3ccncn3)C1)C2` [Example 23, 1-[6,7-dimethyl-4-(methylamino)-1,3-dihydro-2H-pyrrolo[3,4-c]pyridin-2-yl]-2-[1-(pyrimidin-4-yl)azetidin-3-yl]ethanone], for which the Emax was determined as 95.9% and a half-maximal response (EC50) required 1.44 nM.

Consider `CNc1nc(C)c(C)c2c1CN(C(=O)CC1Cc3ccccc3C1)C2` [Example 24, 2-(2,3-dihydro-1H-inden-2-yl)-1-[6,7-dimethyl-4-(methylamino)-1,3-dihydro-2H-pyrrolo[3,4-c]pyridin-2-yl]ethanone], for which the Emax came to 98.2% and the EC50 amounted to 7.27 nM.

Take `Cc1c2c(c(=O)n(C)c1C)CN(C(=O)CC1CN(c3ccnc(C(F)(F)F)c3)C1)C2` [Example 25, 5,6,7-trimethyl-2-({1-[2-(trifluoromethyl)pyridin-4-yl]azetidin-3-yl}acetyl)-1,2,3,5-tetrahydro-4H-pyrrolo[3,4-c]pyridin-4-one]: the Emax came out at 98.9% and the EC50 is 8.35 nM.

Consider `CNc1nc(C)c(C)c2c1CN(C(=O)CCc1ccc(C#N)cc1)C2` [Example 31, 4-{3-[6,7-dimethyl-4-(methylamino)-1,3-dihydro-2H-pyrrolo[3,4-c]pyridin-2-yl]-3-oxopropyl}benzonitrile], for which the Emax turned out to be 102% and a half-maximal response (EC50) required 12.1 nM.

For the compound `CNc1nc(C)c(C)c2c1CN(C(=O)CCc1ccc(OC)cc1)C2` [Example 32, 1-[6,7-dimethyl-4-(methylamino)-1,3-dihydro-2H-pyrrolo[3,4-c]pyridin-2-yl]-3-(4-methoxyphenyl)propan-1-one], the Emax turned out to be 119% and the EC50 was found to be 24.7 nM.

As to `CNc1nc(C)c(C)c2c1CN(C(=O)CC1CN(c3ccnc(C(F)(F)F)c3)C1)C2` [Example 34, 1-[6,7-dimethyl-4-(methylamino)-1,3-dihydro-2H-pyrrolo[3,4-c]pyridin-2-yl]-2-{1-[2-(trifluoromethyl)pyridin-4-yl]azetidin-3-yl}ethanone], the Emax turned out to be 95.9% and the EC50 was 1.3 nM.

Take `CNc1nc(C)c(C)c2c1CN(C(=O)CC1CN(c3ccnc(C)c3)C1)C2` [Example 35, 1-[6,7-dimethyl-4-(methylamino)-1,3-dihydro-2H-pyrrolo[3,4-c]pyridin-2-yl]-2-[1-(2-methylpyridin-4-yl)azetidin-3-yl]ethanone]: the Emax came out at 97.7% and the EC50 came out at 13.6 nM.

Regarding `CNc1nc(C)c(C)c2c1CN(C(=O)CC1CN(c3ccnc(C#N)c3)C1)C2` [Example 36, 4-(3-{2-[6,7-dimethyl-4-(methylamino)-1,3-dihydro-2H-pyrrolo[3,4-c]pyridin-2-yl]-2-oxoethyl}azetidin-1-yl)pyridine-2-carbonitrile], the Emax is 95.6% and it took 5.46 nM to reach a half-maximal effect (EC50).

For `CNc1nc(C)c(C)c2c1CN(C(=O)CC1CN(c3nncs3)C1)C2` [Example 37, 1-[6,7-dimethyl-4-(methylamino)-1,3-dihydro-2H-pyrrolo[3,4-c]pyridin-2-yl]-2-[1-(1,3,4-thiadiazol-2-yl)azetidin-3-yl]ethanone], the Emax worked out at 93.5% and the EC50 amounted to 3.47 nM.

As to `CNc1nc(C)c(C)c2c1CN(C(=O)CCc1cn[nH]c1)C2` [Example 38, 1-[6,7-dimethyl-4-(methylamino)-1,3-dihydro-2H-pyrrolo[3,4-c]pyridin-2-yl]-3-(1H-pyrazol-4-yl)propan-1-one], the Emax was found to be 102% and a half-maximal response (EC50) required 13.8 nM.

`Cc1nc(C(F)F)c2c(c1C)CN(C(=O)CC1CN(c3ccnc(C(F)F)c3)C1)C2` [Example 39, 1-[4-(difluoromethyl)-6,7-dimethyl-1,3-dihydro-2H-pyrrolo[3,4-c]pyridin-2-yl]-2-{1-[2-(difluoromethyl)pyridin-4-yl]azetidin-3-yl}ethanone]: the Emax amounted to 101% and the EC50 was determined as 32 nM.

Turning to `CNc1nc(C)c(C)c2c1CN(C(=O)c1cnn(C)c1)C2` [Example 48, [6,7-dimethyl-4-(methylamino)-1,3-dihydro-2H-pyrrolo[3,4-c]pyridin-2-yl](1-methyl-1H-pyrazol-4-yl)methanone], the Emax came to 96.8% and it took 8.46 nM to reach a half-maximal effect (EC50).

Take `CNc1nc(C)c(C)c2c1CN(C(=O)CC1CN(c3ccc(F)nc3)C1)C2` [Example 51, 1-[6,7-dimethyl-4-(methylamino)-1,3-dihydro-2H-pyrrolo[3,4-c]pyridin-2-yl]-2-[1-(6-fluoropyridin-3-yl)azetidin-3-yl]ethanone]: the Emax is 97.7% and the EC50 worked out at 3.26 nM.

In the case of `Cc1ncc2c(c1C)CN(C(=O)CC1CN(c3cccnc3)C1)C2` [Example 52, 1-(6,7-dimethyl-1,3-dihydro-2H-pyrrolo[3,4-c]pyridin-2-yl)-2-[1-(pyridin-3-yl)azetidin-3-yl]ethanone], the Emax turned out to be 84.5% and a half-maximal effect (EC50) was put at 36.1 nM.

In the case of `COc1nc(C)c(C)c2c1CN(C(=O)CC1CN(c3cccnc3)C1)C2` [Example 53, 1-(4-methoxy-6,7-dimethyl-1,3-dihydro-2H-pyrrolo[3,4-c]pyridin-2-yl)-2-[1-(pyridin-3-yl)azetidin-3-yl]ethanone], the Emax was 92.1% and the response was half-maximal at 43.8 nM (EC50).

In the case of `COCc1nc(C)c(C)c2c1CN(C(=O)CC1CN(c3cccnc3)C1)C2` [Example 54, 1-[4-(methoxymethyl)-6,7-dimethyl-1,3-dihydro-2H-pyrrolo[3,4-c]pyridin-2-yl]-2-[1-(pyridin-3-yl)azetidin-3-yl]ethanone], the Emax was 95.8% and the EC50 came out at 153 nM.

In the case of `COc1nc(C)c(C)c2c1CN(C(=O)CC1CN(c3cncnc3)C1)C2` [Example 55, 1-(4-methoxy-6,7-dimethyl-1,3-dihydro-2H-pyrrolo[3,4-c]pyridin-2-yl)-2-[1-(pyrimidin-5-yl)azetidin-3-yl]ethanone], the Emax came to 96.1% and the EC50 came to 78.7 nM.

Regarding `Cc1nc(OC(F)F)c2c(c1C)CN(C(=O)CC1CN(c3cncnc3)C1)C2` [Example 56, 1-[4-(difluoromethoxy)-6,7-dimethyl-1,3-dihydro-2H-pyrrolo[3,4-c]pyridin-2-yl]-2-[1-(pyrimidin-5-yl)azetidin-3-yl]ethanone], the Emax was 109% and it took 150 nM to reach a half-maximal effect (EC50).

In the case of `CNc1nc(C)c(C)c2c1CN(C(=O)C1CC1)C2` [Example 58, cyclopropyl[6,7-dimethyl-4-(methylamino)-1,3-dihydro-2H-pyrrolo[3,4-c]pyridin-2-yl]methanone], the Emax turned out to be 96.2% and the midpoint of the response, the EC50, lay at 95.2 nM.

Source of the values: patent publication US11198692B2, “Dihydro-pyrrolo-pyridine derivatives” (Pfizer Inc., priority 2017, dated 2021).
